{"source": "ChEMBL document CHEMBL3351623", "about": "“Pim kinase inhibitors for the treatment of cancer and possibly more” (ACS Med Chem Lett, 2014)", "assay_type_in_all_cases": "functional, cell-based", "key": {"[1]": {"assay": "Antiproliferative activity against human MM1S cells", "conditions": "MM1.S"}, "BaF3 [2]": {"test_system": "BaF3", "assay": "Antiproliferative activity against IL3-dependent mouse BAF3 cells"}, "BaF3 [3]": {"test_system": "BaF3", "assay": "Antiproliferative activity against PIM1-dependent mouse BAF3 cells"}}, "note": "pEC50, pIC50: −log10 of the molar value.", "data": [{"compound": "C[C@H]1O[C@@H](c2c(NC(=O)c3csc(-c4c(F)cccc4F)n3)cnn2C)C[C@@H](N)[C@]1(C)O", "note": "(single isomer, unassigned)", "values": [{"measurement": "pEC50", "setting": "[1]", "result": 5.16}, {"measurement": "pIC50", "setting": "BaF3 [2]", "result": "< 4.60"}, {"measurement": "pIC50", "setting": "BaF3 [3]", "result": 7.01}]}, {"compound": "Cn1ncc(NC(=O)c2csc(-c3c(F)cc([C@H]4CCCO4)cc3F)n2)c1[C@@H]1CC[C@@H](N)[C@H](F)CO1", "note": "(single isomer, unassigned)", "values": [{"measurement": "pEC50", "setting": "[1]", "result": 5.77}, {"measurement": "pIC50", "setting": "BaF3 [2]", "result": 4.91}, {"measurement": "pIC50", "setting": "BaF3 [3]", "result": 7.43}]}, {"compound": "Cn1ncc(NC(=O)c2nc(-c3c(F)cccc3F)sc2N)c1[C@]12CC[C@H](O1)[C@@H](N)CC2", "values": [{"measurement": "pIC50", "setting": "BaF3 [3]", "result": 7.72}]}]}
